Experimental data reported in patent US9695155B2, “Herbicidal substituted pyrimidinyloxy benzene compounds” (E. I. DU PONT DE NEMOURS AND COMPANY, priority 2013, dated 2017).

What was measured:
bluegrass = assay: Test D preemergence; type: in vivo, Poa annua
Text: (§1) Seeds of plant species selected from bluegrass (annual bluegrass, Poa annua), blackgrass (Alopecurus myosuroides), canarygrass (littleseed canarygrass, Phalaris minor), chickweed (common chickweed, Stellaria media), galium (catchweed bedstraw, Galium aparine), bromegrass, downy (downy bromegrass, Bromus tectorum), field poppy (Papaver rhoeas), field violet (Viola arvensis), green foxtail (Setaria viridis), deadnettle (henbit deadnettle, Lamium amplexicaule), Italian ryegrass (Lolium multiflorum), kochia (Kochia scoparia), lambsquarters (Chenopodium album), oilseed rape (Brassica napus), pigweed (Amaranthus retroflexus), chamomile (scentless chamomile, Matricaria inodora), Russian thistle (Salsola kali), speedwell (bird's-eye speedwell, Veronica persica), spring barley (Hordeum vulgare), spring wheat (Triticum aestivum), wild buckwheat (Polygonum convolvulus), wild mustard (Sinapis arvensis), wild oat (Avena fatua), wild radish (Raphanus raphanistrum), windgrass (Apera spica-venti), winter barley (Hordeum vulgare), and winter wheat (Triticum aestivum) were planted into a silt loam soil and treated preemergence with test chemicals formulated in a non-phytotoxic solvent mixture which included a surfactant.
(§2) At the same time, these species were planted in pots containing Redi-Earth® planting medium (Scotts Company, 14111 Scottslawn Road, Marysville, Ohio 43041) comprising spaghnum peat moss, vermiculite, wetting agent and starter nutrients and treated with postemergence applications of the test chemicals formulated in the same manner. Plants ranged in height from 2 to 18 cm (1- to 4-leaf stage). Treated plants and controls were maintained in a controlled growth environment for 7 to 21 days after which time all species were compared to controls and visually evaluated. Plant response ratings, summarized in Table D, are based on a scale of 0 to 100 where 0 is no effect and 100 is complete control. A dash (-) response means no test result.

blackgrass = assay: Test D preemergence; type: in vivo, Alopecurus myosuroides
Text: as §1, §2

Italian ryegrass = assay: Test D preemergence; type: in vivo, Lolium multiflorum
Text: as §1, §2

spring barley = assay: Test D preemergence; type: in vivo, Hordeum vulgare
Text: as §1, §2

winter barley = assay: Test D preemergence; type: in vivo, Hordeum vulgare
Text: as §1, §2

wild mustard = assay: Test D preemergence; type: in vivo, Sinapis arvensis
Text: as §1, §2

wild oat = assay: Test D preemergence; type: in vivo, Avena fatua
Text: as §1, §2

green foxtail = assay: Test D postemergence; type: in vivo, Setaria viridis
Text: as §1, §2

spring wheat = assay: Test D postemergence; type: in vivo, Triticum aestivum
Text: as §1, §2

winter wheat = assay: Test D postemergence; type: in vivo, Triticum aestivum
Text: as §1, §2

[1] = 16 g ai/ha, scale 0 (no effect) to 100 (complete control)
[2] = 31 g ai/ha, scale 0 to 100 (0 no effect, 100 complete control)
[3] = 62 g ai/ha, scale 0 to 100 (0 no effect, 100 complete control)
[4] = 125 g ai/ha, scale 0 to 100 (0 no effect, 100 complete control)
[5] = 250 g ai/ha, scale 0 to 100 (0 no effect, 100 complete control)

**Q.** What does the source list for Clc1cnc(Oc2ccccc2-n2cc(Cl)cn2)nc1 [Compound 3]?
**A.** Plant response rating, Bluegrass (bluegrass; [1]): 0; Plant response rating, Bluegrass (bluegrass; 31 g ai/ha, scale 0-100): 0; Plant response rating, Bluegrass (bluegrass; 62 g ai/ha, scale 0-100): 0; Plant response rating, Bluegrass (bluegrass; 125 g ai/ha, scale 0-100): 20; Plant response rating, Bluegrass (bluegrass; 250 g ai/ha, scale 0-100): 40; Plant response rating, Blackgrass (blackgrass; [1]): 0; Plant response rating, Blackgrass (blackgrass; 31 g ai/ha, scale 0-100): 0; Plant response rating, Blackgrass (blackgrass; 62 g ai/ha, scale 0-100): 0; Plant response rating, Blackgrass (blackgrass; 125 g ai/ha, scale 0-100): 0; Plant response rating, Blackgrass (blackgrass; 250 g ai/ha, scale 0-100): 0; Plant response rating, Ryegrass, Italian (Italian ryegrass; [1]): 0; Plant response rating, Ryegrass, Italian (Italian ryegrass; 31 g ai/ha, scale 0 (no effect) to 100 (complete control)): 0; Plant response rating, Ryegrass, Italian (Italian ryegrass; 62 g ai/ha, scale 0-100): 0; Plant response rating, Ryegrass, Italian (Italian ryegrass; 125 g ai/ha, scale 0-100): 0; Plant response rating, Ryegrass, Italian (Italian ryegrass; 250 g ai/ha, scale 0-100): 0; Plant response rating, Barley, Spring (spring barley; [1]): 0; Plant response rating, Barley, Spring (spring barley; 31 g ai/ha, scale 0-100): 0; Plant response rating, Barley, Spring (spring barley; 62 g ai/ha, scale 0-100): 0; Plant response rating, Barley, Spring (spring barley; 125 g ai/ha, scale 0-100): 0; Plant response rating, Barley, Spring (spring barley; 250 g ai/ha, scale 0-100): 0; Plant response rating, Barley, Winter (winter barley; [1]): 0; Plant response rating, Barley, Winter (winter barley; 31 g ai/ha, scale 0-100): 0; Plant response rating, Barley, Winter (winter barley; 62 g ai/ha, scale 0-100): 0; Plant response rating, Barley, Winter (winter barley; 125 g ai/ha, scale 0-100): 10; Plant response rating, Barley, Winter (winter barley; 250 g ai/ha, scale 0-100): 20; Plant response rating, Mustard, Wild (wild mustard; [1]): 30; Plant response rating, Mustard, Wild (wild mustard; 31 g ai/ha, scale 0-100): 80; Plant response rating, Mustard, Wild (wild mustard; 62 g ai/ha, scale 0-100): 80; Plant response rating, Mustard, Wild (wild mustard; 125 g ai/ha, scale 0-100): 90; Plant response rating, Mustard, Wild (wild mustard; 250 g ai/ha, scale 0-100): 100; Plant response rating, Oat, Wild (wild oat; [1]): 0; Plant response rating, Oat, Wild (wild oat; 31 g ai/ha, scale 0-100): 0; Plant response rating, Oat, Wild (wild oat; 62 g ai/ha, scale 0-100): 0; Plant response rating, Oat, Wild (wild oat; 125 g ai/ha, scale 0-100): 0; Plant response rating, Oat, Wild (wild oat; 250 g ai/ha, scale 0-100): 10; Plant response rating, Foxtail, Green (green foxtail; 16 g ai/ha, scale 0-100): 10; Plant response rating, Foxtail, Green (green foxtail; [2]): 0; Plant response rating, Foxtail, Green (green foxtail; [3]): 0; Plant response rating, Foxtail, Green (green foxtail; [4]): 0; Plant response rating, Foxtail, Green (green foxtail; [5]): 10; Plant response rating, Wheat, Spring (spring wheat; 16 g ai/ha, scale 0-100): 60; Plant response rating, Wheat, Spring (spring wheat; [2]): 0; Plant response rating, Wheat, Spring (spring wheat; [3]): 0; Plant response rating, Wheat, Spring (spring wheat; [4]): 0; Plant response rating, Wheat, Spring (spring wheat; [5]): 0; Plant response rating, Wheat, Winter (winter wheat; 16 g ai/ha, scale 0-100): 65; Plant response rating, Wheat, Winter (winter wheat; [2]): 0; Plant response rating, Wheat, Winter (winter wheat; [3]): 0; Plant response rating, Wheat, Winter (winter wheat; [4]): 0; Plant response rating, Wheat, Winter (winter wheat; [5]): 0

**Q.** How did the pest or weed control at 16 g/ha (bluegrass; Poa annua, pre-emergence, 16 g ai/ha, scale 0 (no effect) to 100 (complete control), read-out: Plant response rating, Bluegrass) turn out when Fc1cccc(Oc2ncc(Cl)cn2)c1-n1cc(Br)cn1 [Compound 178, 2-[2-(4-bromo-1H-pyrazol-1-yl)-3-fluorophenoxy]-5-chloropyrimidine] was run?
**A.** 0%

**Q.** And the pest or weed control at 31 g/ha (bluegrass; Poa annua, pre-emergence, 31 g ai/ha, scale 0-100, read-out: Plant response rating, Bluegrass)?
**A.** 10%

**Q.** What about the pest or weed control at 62 g/ha (bluegrass; Poa annua, pre-emergence, 62 g ai/ha, scale 0-100, read-out: Plant response rating, Bluegrass) of the same molecule?
**A.** 20%

**Q.** And the pest or weed control at 125 g/ha (bluegrass; Poa annua, pre-emergence, 125 g ai/ha, scale 0-100, read-out: Plant response rating, Bluegrass)?
**A.** 70%

**Q.** What about the pest or weed control at 16 g/ha (blackgrass; Alopecurus myosuroides, pre-emergence, 16 g ai/ha, scale 0 (no effect) to 100 (complete control), read-out: Plant response rating, Blackgrass) of the same molecule?
**A.** 5%

**Q.** What about the pest or weed control at 31 g/ha (blackgrass; Alopecurus myosuroides, pre-emergence, 31 g ai/ha, scale 0-100, read-out: Plant response rating, Blackgrass) of the same molecule?
**A.** 10%

**Q.** What about the pest or weed control at 62 g/ha (blackgrass; Alopecurus myosuroides, pre-emergence, 62 g ai/ha, scale 0-100, read-out: Plant response rating, Blackgrass) of the same molecule?
**A.** 35%

**Q.** What about the pest or weed control at 125 g/ha (blackgrass; Alopecurus myosuroides, pre-emergence, 125 g ai/ha, scale 0-100, read-out: Plant response rating, Blackgrass) of the same molecule?
**A.** 85%

**Q.** And the pest or weed control at 16 g/ha (Italian ryegrass; Lolium multiflorum, pre-emergence, 16 g ai/ha, scale 0 (no effect) to 100 (complete control), read-out: Plant response rating, Ryegrass, Italian)?
**A.** 0%

**Q.** What about the pest or weed control at 31 g/ha (Italian ryegrass; Lolium multiflorum, pre-emergence, 31 g ai/ha, scale 0 (no effect) to 100 (complete control), read-out: Plant response rating, Ryegrass, Italian) of the same molecule?
**A.** 0%

**Q.** And the pest or weed control at 62 g/ha (Italian ryegrass; Lolium multiflorum, pre-emergence, 62 g ai/ha, scale 0-100, read-out: Plant response rating, Ryegrass, Italian)?
**A.** 15%

**Q.** What about the pest or weed control at 125 g/ha (Italian ryegrass; Lolium multiflorum, pre-emergence, 125 g ai/ha, scale 0-100, read-out: Plant response rating, Ryegrass, Italian) of the same molecule?
**A.** 20%

**Q.** And the pest or weed control at 16 g/ha (wild mustard; Brassica, pre-emergence, 16 g ai/ha, scale 0 (no effect) to 100 (complete control), read-out: Plant response rating, Mustard, Wild)?
**A.** 25%

**Q.** What about the pest or weed control at 31 g/ha (wild mustard; Brassica, pre-emergence, 31 g ai/ha, scale 0-100, read-out: Plant response rating, Mustard, Wild) of the same molecule?
**A.** 35%

**Q.** And the pest or weed control at 62 g/ha (wild mustard; Brassica, pre-emergence, 62 g ai/ha, scale 0-100, read-out: Plant response rating, Mustard, Wild)?
**A.** 95%

**Q.** And the pest or weed control at 125 g/ha (wild mustard; Brassica, pre-emergence, 125 g ai/ha, scale 0-100, read-out: Plant response rating, Mustard, Wild)?
**A.** 95%

**Q.** And the pest or weed control at 16 g/ha (wild oat; Avena fatua, pre-emergence, 16 g ai/ha, scale 0 (no effect) to 100 (complete control), read-out: Plant response rating, Oat, Wild)?
**A.** 0%

**Q.** What about the pest or weed control at 31 g/ha (wild oat; Avena fatua, pre-emergence, 31 g ai/ha, scale 0-100, read-out: Plant response rating, Oat, Wild) of the same molecule?
**A.** 0%

**Q.** What about the pest or weed control at 62 g/ha (wild oat; Avena fatua, pre-emergence, 62 g ai/ha, scale 0-100, read-out: Plant response rating, Oat, Wild) of the same molecule?
**A.** 10%

**Q.** And the pest or weed control at 125 g/ha (wild oat; Avena fatua, pre-emergence, 125 g ai/ha, scale 0-100, read-out: Plant response rating, Oat, Wild)?
**A.** 25%

**Q.** And the pest or weed control at 16 g/ha (green foxtail; Setaria viridis, post-emergence, 16 g ai/ha, scale 0-100, read-out: Plant response rating, Foxtail, Green)?
**A.** 15%

**Q.** What about the pest or weed control at 31 g/ha (green foxtail; Setaria viridis, post-emergence, 31 g ai/ha, scale 0 to 100 (0 no effect, 100 complete control), read-out: Plant response rating, Foxtail, Green) of the same molecule?
**A.** 20%

**Q.** What about the pest or weed control at 62 g/ha (green foxtail; Setaria viridis, post-emergence, 62 g ai/ha, scale 0 to 100 (0 no effect, 100 complete control), read-out: Plant response rating, Foxtail, Green) of the same molecule?
**A.** 30%

**Q.** What about the pest or weed control at 125 g/ha (green foxtail; Setaria viridis, post-emergence, 125 g ai/ha, scale 0 to 100 (0 no effect, 100 complete control), read-out: Plant response rating, Foxtail, Green) of the same molecule?
**A.** 35%

**Q.** What about the plant injury at 16 g/ha (spring wheat; Triticum aestivum, post-emergence, 16 g ai/ha, scale 0-100, read-out: Plant response rating, Wheat, Spring) of the same molecule?
**A.** 0%

**Q.** What about the plant injury at 31 g/ha (spring wheat; Triticum aestivum, post-emergence, 31 g ai/ha, scale 0 to 100 (0 no effect, 100 complete control), read-out: Plant response rating, Wheat, Spring) of the same molecule?
**A.** 0%

**Q.** What about the plant injury at 62 g/ha (spring wheat; Triticum aestivum, post-emergence, 62 g ai/ha, scale 0 to 100 (0 no effect, 100 complete control), read-out: Plant response rating, Wheat, Spring) of the same molecule?
**A.** 0%

**Q.** And the plant injury at 125 g/ha (spring wheat; Triticum aestivum, post-emergence, 125 g ai/ha, scale 0 to 100 (0 no effect, 100 complete control), read-out: Plant response rating, Wheat, Spring)?
**A.** 5%

**Q.** What about the plant injury at 16 g/ha (winter wheat; Triticum aestivum, post-emergence, 16 g ai/ha, scale 0-100, read-out: Plant response rating, Wheat, Winter) of the same molecule?
**A.** 0%

**Q.** And the plant injury at 31 g/ha (winter wheat; Triticum aestivum, post-emergence, 31 g ai/ha, scale 0 to 100 (0 no effect, 100 complete control), read-out: Plant response rating, Wheat, Winter)?
**A.** 0%

**Q.** And the plant injury at 62 g/ha (winter wheat; Triticum aestivum, post-emergence, 62 g ai/ha, scale 0 to 100 (0 no effect, 100 complete control), read-out: Plant response rating, Wheat, Winter)?
**A.** 0%

**Q.** What about the plant injury at 125 g/ha (winter wheat; Triticum aestivum, post-emergence, 125 g ai/ha, scale 0 to 100 (0 no effect, 100 complete control), read-out: Plant response rating, Wheat, Winter) of the same molecule?
**A.** 10%
